Measured values as given in US5811465A, “Composition, device, and method for electrotransport agent delivery” (priority 1997, dated 1998).
Read-outs that look alike come from different tables or passages of the source.

Key:
[1] = for Normalized Ketoprofen Flux (after 5 hrs): control = 1.00, 100 μA/cm^2, about 32° C.
Description: (§1) Human cadaver skin was prepared by first removing about 1 mm thick skin samples with an electric dermatome in the form of strips. The skin strips were placed in polyethylene bags, sealed and placed in a refrigerator at about 4° C. for temporary storage. Prior to use in the electrotransport cell, the skin strips were placed in one-liter beakers containing water at 60° C. for about 90 seconds with gentle stirring. Then, the skin strips were removed and placed onto the absorbent side of a piece of BENCHKOTE™ fabric with the dermis side down. Using flat tipped tweezers to retain the dermis, the epidermis was removed from each strip with a round-tip spatula. Each epidermis, stratum comeum side up, was transferred to a PYREX™ glass tray which was filled with water. Each floating epidermis was stretched essentially flat. After removal from the water 2.22 cm (7/8 in.) diameter disks of each epidermis were punched out of areas having negligible surface damage. The disks were stored at 4° C. in a sealed container with water droplets to maintain their moisture.
(§2) The human cadaver epidermis disks were mounted between compartments 44 and 46 of the electrotransport permeation cell shown in FIG. 2. The cell was comprised of a polycarbonate support structure 52, including O-ring seals 54, and the assembly was held together with stainless steel bolt and nut 56. The human skin disk 42 separated the anodic compartment 44 and the cathodic compartment 46. A silver anode 48 was placed adjacent to the anodic compartment 44, and a silver chloride cathode 50 was placed adjacent to the cathodic compartment 46. The area of the human skin disk 42 exposed for transport was about 1.26 cm^2 and the volume of each of compartments 44 and 46 was about 2 ml. The electrodes 48, 50 were electrically connected to a galvanostat (not shown in FIG. 2), which can be set to apply the voltage necessary to achieve a constant predetermined level of electric current. The galvanostat was set to apply a current of 126 μA, ie, 100 μA/cm^2 across electrodes 48, 50 throughout each test.
(§3) Dulbecco's phosphate buffered saline (about 0.15M NaCl with minor amounts of other ions, pH 7.0) was placed in the anodic receptor compartment 44. The skin resistance was calculated from the voltages applied by the galvanostat according to Ohm's law, ie, Rskin =ΔV/i, where ΔV is the potential applied by the galvanostat, and i is the applied current, 126 microamps.
(§4) The system was maintained at about 32° C. by a Haake Model D1 heating block/water bath. The cell voltage was monitored over the entire procedure, and then averaged. The skin resistance was calculated from Ohm's law as described above using the measured ΔV.
(§5) The samples were automatically taken from the receptor compartment every one to two hours, except for overnight experimentation, with an Isco Model 2230 autosampler and a metering pump. […] Each run was conduced in triplicate, including the control, to minimize error. All cells were set up with tissue from the same cadaver. The selected permeation enhancer was placed in the donor compartment, while the control cell's donor compartment contained no enhancer.
(§6) Thus, the flux control and the skin conductivity control were each assigned a value of 1, and the flux/conductivity values obtained after addition of each permeation enhancer to the donor solution are normalized to the control.

[2] = Electrical conductivity of human cadaver skin during electrotransport with permeation enhancer (Example 1); details: for Normalized Skin Conductivity (after 5 hrs): control = 1.00, 100 μA/cm^2, about 32° C.; for enhancement (skin conductivity), in words: comparison among tested enhancers, with/without ethanol
Description: as §1, §2, §3, §4, §5, §6

[3] = Water solubility of permeation enhancer; assay type: physicochemical; details: at about 20° C.
[4] = 25 mM enhancer in 20% Ethanol, pH 7.05
[5] = 25 mM enhancer, without ethanol, pH 6.90
[6] = 1,2-dodecane diol with vs without ethanol
[7] = 10 mM enhancer in 20% Ethanol, pH 7.30 (ODAA), 7.00 (A3)
[8] = 10 mM enhancer, without ethanol, pH 7.20 (DMDDA), 6.90 (DDPDCl)

Q: With CCCCCCCCCCC(O)CO (stereo not shown) [1,2-Dodecanediol, 1,2-dodecane diol] as the compound, how does the “Normalized Ketoprofen Flux (after 5 hrs)” value [1, 4] read?
A: The value was 1.95.

Q: What about the “Normalized Ketoprofen Flux (after 5 hrs)” value [1, 5] of the same compound?
A: Its value is 1.99.

Q: And the “effect of ethanol as solvent on ketoprofen flux” value [1, 6]?
A: The value was “did not affect ketoprofen flux”.

Q: And the “ketoprofen flux enhanced, relative to control value (in words)” value ([1]; addition of 1,2-dodecane diol)?
A: The value was “about double”.

Q: And the “enhancement (flux), in words” value ([1]; ketoprofen flux, comparison among tested enhancers, with/without ethanol)?
A: The value was “effective for enhancing both flux and skin conductivity in the presence and in the absence of ethanol”.

Q: What about the “Normalized Skin Conductivity (after 5 hrs)” value (from here on “Normalized Skin Conductivity”) [2, 4] of the same compound?
A: The value was 6.81.

Q: What about the “Normalized Skin Conductivity” value [2, 5] of the same compound?
A: The value was 5.69.

Q: And the “increase in skin conductivity by presence of ethanol” value [2, 6]?
A: The value was “about 20%”.

Q: And the “enhancement of skin conductivity relative to the other permeation enhancers” value ([2]; alone without ethanol)?
A: The value was “more than double”.

Q: And the “enhancement (skin conductivity), in words” value [2]?
A: The value was “effective for enhancing both flux and skin conductivity in the presence and in the absence of ethanol”.

Q: And the water solubility [3]?
A: Its water solubility is “greater than 25 mM”.

Q: With CCCCCCCCCCCC(=O)OCCCn1ccn(C)c1=O [A3, 1-methyl-4-imidazoline-2-one-3-propylenedodecanoate] as the compound, how does the “Normalized Ketoprofen Flux (after 5 hrs)” value [1, 7] read?
A: Its value is 1.76.

Q: And the “Normalized Skin Conductivity” value [2, 7]?
A: The value was 5.93.

Q: What does the source list for CCCCCCCCCCCCN(C)C [DMDDA, N,N-dimethyl-dodecylamine]?
A: Normalized Ketoprofen Flux (after 5 hrs) [1, 8]: 1.37; Normalized Skin Conductivity (after 5 hrs) [2, 8]: 2.71

Q: With CCCCCCCCCCCCO [Dodecanol, dodecanol] as the compound, how does the “enhancement (flux), in words” value [1] read?
A: The value was “greatest enhancement”.

Q: What about the “Normalized Skin Conductivity” value [2, 4] of the same compound?
A: Its value is 34.7.

Q: What about the “enhancement (skin conductivity), in words” value [2] of the same compound?
A: Its value is “greatest enhancement”.

Q: With “octyl-N,N-dimethyl-dodecylamino acetate [ODAA]” as the compound, how does the “Normalized Skin Conductivity” value [2, 7] read?
A: Its value is 4.61.
